# Measured values reported in patent publication US20090130763A1, “Method of Controlling Degradation of Protein by Tetracycline Antibiotic” (priority 2005, published 2009).
# Residues, ends and D or L forms follow the SMILES beside them. *: point of attachment. Cbz = O=C(OCc1ccccc1)*
# System: proteasome
# Assay: Incubation of TetR-EGFP-expressed cells with proteasome inhibitor, fluorescence by flow cytometer
# Conditions: variant TetR-EGFP-expressed cells, 100 μg/ml, 12 hours (FIG. 1C)
# Procedure: The cells were treated with trypsin and then recovered. Fluorescence-positive cell rates and the intensity of fluorescence per cell were analyzed by a flow cytometer (BD, FACSCalibur).
# These cells were incubated for 12 hours in the presence of 100 μg/ml of proteasome inhibitor MG132.
compound,measurement,value
CC(C)C[C@@H](C=O)NC(=O)[C@H](CC(C)C)NC(=O)[C@H](CC(C)C)NC(=O)OCc1ccccc1 [MG132] (Cbz-Leu-Leu-Leu-aldehyde),change in fluorescence,marked increase
